The subject of assay [1] is LPS/IL-1β-induced IL-6 secretion in human peripheral blood mononuclear cells (PBMCs). Put plainly: Inhibition of LPS/IL-1β-induced IL-6 secretion in human PBMCs (IL-6 ELISA). In kind it is cell-based. The conditions noted are these: PBMC, LPS 10 ng/mL + IL-1β 20 ng/mL, 24 h pre-incubation, 20 h stimulation. As to the method: This experiment was carried out in RPMI 1640 medium containing 10% FBS and 1% penicillin/streptomycin, with each of the compounds at an initial test concentration of 1 μM.
The compound was dissolved in DMSO to prepare a stock solution, which was serially diluted into some working solutions with a 5-fold concentration gradient using the culture medium and then added to a 96-well plate at 10 μL per well. PBMCs (Batch No.: P122101102C; Milecell Biotechnology Inc.) were counted and diluted to a cell concentration of about 1.3×10^6 cells/mL, and then added to the aforementioned compound-containing 96-well plate at 150 μL per well. The system was mixed well and incubated in a 5% CO2 incubator at 37° C. for 24 h. Then 5 μL of LPS (final concentration: 10 ng/mL) and 5 μL of IL-1β (final concentration: 20 ng/mL) were added to each well, respectively, and the culture was continued for 20 h in a 5% CO2 incubator at 37° C. After incubation, the 96-well plate was centrifuged at 2000 rpm for 4 min. The supernatant was collected and diluted 200-fold, then detected using an IL-6 ELISA kit. The OD450 values were read, and converted to IL-6 concentrations based on a standard curve. The dose-response curves were fitted using GraphPad 8.0 to calculate the IC50 values.

The next assay has as its target T1, IRAK4 (Homo sapiens, UniProt Q9NWZ3).
T1 construct: Effect of the Compounds on IRAK4 Protein Degradation in THP1 Cells; endogenous in cells; host or cells: THP-1 cells
T1 sequence (Q9NWZ3 1-460): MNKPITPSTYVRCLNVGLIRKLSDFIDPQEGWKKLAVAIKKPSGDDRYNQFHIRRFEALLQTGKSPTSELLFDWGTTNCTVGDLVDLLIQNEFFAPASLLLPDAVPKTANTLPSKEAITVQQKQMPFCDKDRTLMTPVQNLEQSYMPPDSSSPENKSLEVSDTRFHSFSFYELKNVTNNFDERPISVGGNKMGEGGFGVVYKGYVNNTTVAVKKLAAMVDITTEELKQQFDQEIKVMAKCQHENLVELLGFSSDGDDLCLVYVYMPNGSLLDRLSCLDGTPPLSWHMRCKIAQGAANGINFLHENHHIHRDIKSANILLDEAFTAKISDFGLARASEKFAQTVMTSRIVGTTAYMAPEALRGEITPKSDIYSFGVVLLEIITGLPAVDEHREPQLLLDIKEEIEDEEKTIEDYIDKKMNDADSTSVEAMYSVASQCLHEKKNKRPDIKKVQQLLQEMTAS
The experiment in a line: IRAK4 protein degradation in THP1 cells (Western blot). Format: cell-based. Particulars: THP-1 cells, 24 h. As to the method:
THP-1 cells were seeded into a 96-well cell culture plate, with 2×10^5 cells and 90 μL of culture medium per well. The cell culture plate was cultured in an incubator with 5% CO2 at 37° C. overnight. The compound was dissolved in DMSO to prepare a stock solution, which was serially diluted into a series of working solutions with a 5-fold concentration gradient using the culture medium and then added to the aforementioned 96-well plate at 10 μL per well. The cell culture plate was further incubated for 24 h in a 5% CO2 incubator at 37° C. After incubation, the 96-well plate was centrifuged and the supernatant was discarded, followed by adding 40 μL of cell lysis buffer containing […]/phosphatase inhibitors to each well for sufficient lysis on an ice bath. Protein quantification was performed using the BCA protein quantification kit, followed by the preparation of Western blot samples. […] After electrophoresis, protein transfer was performed using a PVDF membrane under ice bath conditions for 1 h. After the transfer was completed, the PVDF membrane was blocked with gentle shaking in 5% skim milk at room temperature for 1 h. After blocking, the PVDF membrane was incubated with the primary antibody overnight with gentle shaking at 4° C. The PVDF membrane was washed 3 times with TBST, then the secondary antibody was added and incubated for 1 h with gentle shaking at room temperature, followed by washing of the PVDF membrane with TBST for 3 times. After the washes were completed, the chemiluminescent substrate was added; the PVDF membrane was scanned using a Clinx imager, semi-quantitative analysis was performed with ImageJ software, and the DC50 was calculated using GraphPad Prism 8.0.
Background: In western blotting, separated proteins are transferred to a membrane and probed.

With `C[C@H]1CN(C[C@H]2CC[C@H](n3cc4cc(NC(=O)c5cnn6cccnc56)c(N(C)C)cc4n3)CC2)CC[C@@H]1n1cc2ccc(C3CCC(=O)NC3=O)cc2n1` (stereo partly shown) [TM-157], the IC50 (as a rule, the concentration needed to halve the response being measured) in assay [1] is 1.46 nM. Further, the DC50 (usually the concentration at which degradation of the target reaches its halfway point) at IRAK4 amounted to 1.12 nM.
Regarding `CN(C)c1cc2nn([C@H]3CC[C@H](CN4CCN(c5nc6cc(C7CCC(=O)NC7=O)ccc6o5)CC4)CC3)cc2cc1NC(=O)c1cnn2cccnc12` (stereo partly shown) [TM-106], in assay [1], the IC50 stood at 2.52 nM. On IRAK4, this molecule showed a DC50 of 3.82 nM.
In the same order, the values of `CN(C)c1cc2nn([C@H]3CC[C@H](CN4CC[C@H](n5cc6cc(N7CCC(=O)NC7=O)c(F)cc6n5)[C@@H](F)C4)CC3)cc2cc1NC(=O)c1cnn2cccnc12` [TM-131] are 5.07 nM and 0.81 nM.
Regarding `CN(C)c1cc2nn([C@H]3CC[C@H](CN4CC[C@@H](n5cc6cc(N7CCC(=O)NC7=O)c(F)cc6n5)[C@@H](F)C4)CC3)cc2cc1NC(=O)c1cnn2cccnc12` [TM-42], the IC50 in assay [1] was 1.65 nM. At IRAK4, it took 0.93 nM to reach half-maximal degradation (DC50).
With `CO[C@H]1CN(C[C@H]2CC[C@H](n3cc4cc(NC(=O)c5cnn6cccnc56)c(N(C)C)cc4n3)CC2)CC[C@H]1n1cc2ccc(N3CCC(=O)NC3=O)cc2n1` [TM-33], the IC50 in assay [1] was found to be 0.87 nM. Also, on IRAK4, the DC50 is 2.86 nM.
On to `CN(C)c1cc2nn([C@H]3CC[C@H](CN4CC[C@@H](n5cc6cc(C7CCC(=O)NC7=O)ccc6n5)[C@@H](F)C4)CC3)cc2cc1NC(=O)c1cnn2cccnc12` (stereo partly shown) [TM-156], for which the IC50 in assay [1] is 1.17 nM. Further, the DC50 on IRAK4 was determined as 0.32 nM.
For the molecule `CN(C)c1cc2nn([C@H]3CC[C@H](CN4CCC(n5cc6cc(N7CCC(=O)NC7=O)c(F)cc6n5)CC4)CC3)cc2cc1NC(=O)c1cnn2cccnc12` [TM-9], the IC50 in assay [1] is 2.03 nM. Half-maximal degradation at IRAK4 (DC50) was put at 5.41 nM.
As for `CN(C)c1cc2nn([C@H]3CC[C@H](CN4CC5(CCN(c6nc7ccc(N8CCC(=O)NC8=O)cc7s6)CC5)C4)CC3)cc2cc1NC(=O)c1cnn2cccnc12` [TM-67], in assay [1], the IC50 turned out to be 4.01 nM. At IRAK4, this molecule came in with a DC50 of 19.9 nM.
The like results for `CN(C)c1cc2nn(C3CCN(C[C@H]4CC[C@H](n5cc6cc(C7CCC(=O)NC7=O)ccc6n5)CC4)CC3)cc2cc1NC(=O)c1cnn2cccnc12` (stereo partly shown) [TM-7] were, in that order, 0.18 nM and 3.73 nM.
In the case of `CN(C)c1cc2nn([C@H]3CC[C@H](CN4CCC(N5Cc6ccc(N7CCC(=O)NC7=O)cc6C5=O)CC4)CC3)cc2cc1NC(=O)c1cnn2cccnc12` [TM-143], the IC50 in assay [1] was 11.9 nM. This molecule also returned a DC50 on IRAK4 of 135 nM.
Take `CN(C)c1cc2nn([C@H]3CC[C@H](CN4CC[C@H](n5cc6cc(N7CCC(=O)NC7=O)c(F)cc6n5)[C@H](F)C4)CC3)cc2cc1NC(=O)c1cnn2cccnc12` [TM-130]: in assay [1], the IC50 turned out to be 5.12 nM. Moreover, the DC50 at IRAK4 was found to be 4.26 nM.
With `CN(C)c1cc2nn([C@H]3CC[C@H](CN4CC[C@H](n5cc6ccc(C7CCC(=O)NC7=O)cc6n5)[C@H](F)C4)CC3)cc2cc1NC(=O)c1cnn2cccnc12` (stereo partly shown) [TM-153], the IC50 in assay [1] worked out at 6.79 nM. It took 0.79 nM to reach half-maximal degradation at IRAK4 (DC50).
For `CN(C)c1cc2nn([C@H]3CC[C@H](CN4CCC5(CC4)C[C@@H](n4cc6cc(C7CCC(=O)NC7=O)c(F)cc6n4)CO5)CC3)cc2cc1NC(=O)c1cnn2cccnc12` (stereo partly shown) [TM-141], in assay [1], the IC50 was determined as 4.49 nM. The DC50 at IRAK4 stood at 4.33 nM.
On to `CN(C)c1cc2nn([C@H]3CC[C@H](CN4CC[C@H](n5cc6cc(C7CCC(=O)NC7=O)ccc6n5)[C@H](F)C4)CC3)cc2cc1NC(=O)c1cnn2cccnc12` (stereo partly shown) [TM-155], for which, in assay [1], the IC50 came out at 1 nM. Also, the DC50 at IRAK4 was 0.31 nM.
